Experiments:
h-GABA-A α2β2γ1 receptor = h-GABA-A α2β2γ1 receptor (Homo sapiens (Human), UniProt P47869+Q8N1C3); experiment: Two-electrode voltage clamp electrophysiology in Xenopus oocytes expressing GABAA receptors; assay type: cell-based; settings: for Efficacy (GABA) %: % modulation of GABA EC20 = 100*(Fold increase−1), compound at 30-fold Ki α2β2γ1; for Fold increase h-GABA-A α2β2γ1 oocyte @ 30-fold Ki: Xenopus oocytes, GABA EC20, test compound at approx. 30-fold its Ki α2β2γ1
Procedure: Xenopus laevis oocytes at maturation stages V-VI were used for the expression of cloned mRNA encoding GABAA receptor subunits. Oocytes ready for RNA micro-injection were bought from Ecocyte, Castrop-Rauxel, Germany and stored in modified Barth's medium (composition in mM: NaCl 88, KCl 1, NaHCO3 2.4, HEPES 10, MgSO4 0.82, CaNO3 0.33, CaCl2 0.33, pH=7.5) at 20° C. until the experiment.
Oocytes were plated in 96-well plates for microinjection using the Roboinject automated instrument (MultiChannelSystems, Reutlingen, Germany). Approximately 50 nL of an aqueous solution containing the RNA transcripts for the subunits of the desired GABAA receptor subtype was injected into each oocyte. […] Oocytes were kept in modified Barth's medium (composition in mM: NaCl 88, KCl 1, NaHCO3 4, HEPES 10, MgSO4 0.82, CaNO3 0.33, CaCl, 0.33, pH=7.5) at 20° C. until the experiment.
Electrophysiological experiments were performed using the Roboocyte instrument (MultiChannelSystems, Reutlingen, Germany) on days 3 to 5 after the micro-injection of mRNA. During the experiment the oocytes were constantly superfused by a solution containing (in mM) NaCl 90, KCl 1, HEPES 5, MgCl2 1, CaCl2 1 (pH 7.4). Oocytes were impaled by two glass microelectrodes (resistance: 0.5-0.8 MΩ) which were filled with a solution containing KCl 1M+K-acetate 1.5 M and voltage-clamped to −80 mV. The recordings were performed at room temperature using the Roboocyte two-electrode voltage clamp system (Multichannelsystem). After an initial equilibration period of 1.5 min GABA was added for 1.5 min at a concentration evoking approximately 20% of a maximal current response (EC2O). After another rest interval of 2.5 min GABA was again added evoking a response of similar amplitude and shape. […] Current traces were recorded at a digitization rate of 10 Hz during and shortly before and after the GABA application.
Each compound and concentration was tested on at least 3 oocytes. Different oocytes were used for different compound concentrations.
For the analysis, the digitized current traces of the first and second GABA response were superimposed and, if necessary, rescaled to equal maximal amplitudes. The ratio between the two responses during the time interval of test compound application was calculated point by point. The extremum of the resulting “ratio trace” was taken as the efficacy (“Fold increase”) of the compound expressed as “% modulation of GABA EC20” (100*(Fold increase−1)).

[1] = target: human GABAA α5β2γ1 receptor (Homo sapiens (Human), UniProt P31644+Q8N1C3); experiment: Radioligand binding assay, competition for [3H]RO7239181, membranes from HEK293F cells
Procedure: The affinity of compounds at GABAA γ1 subunit-containing receptors was measured by competition for [^3H]RO7239181 (67.3 Ci/mmol; Roche) binding to membranes from HEK293F cells (ThermoFisher R79007) expressing human (transiently transfected) receptors of composition α5β2γ1, α2β2γ1, α1β2γ1. For better protein expression of the α2 subunit-containing receptors, the 28 amino acid long signal peptide (Met1 to Ala28) of the human GABAA α2 subunit was substituted by the 31 amino acid long signal peptide (Met1 to Ser31) of human GABAA α5 subunit.
Harvested pellets from HEK293F cells expressing the different GABAA receptor subtypes were resuspended in Mannitol Buffer pH 7.2-7.4 (Mannitol 0.29M, Triethylamine 10 mM, Acetic acid 10 mM, EDTA 1 mM plus protease inhibitors (20 tablets Complete, Roche Diagnostics Cat. No. 05 056 489 001 per liter)), washed two times and then resuspended at 1:10 to 1:15 dilution in the same buffer. Cell disruption was performed by stirring the suspension in a Parr vessel #4637 at 435 psi for 15 minutes, and then the suspensions were centrifuged at 1000×g for 15 minutes at 4° C. (Beckman Avanti J-HC; rotor JS-4.2). The supernatant (S1) was transferred in a 21 Schott flask and the pellet (P1) was resuspended with Mannitol Buffer up to 175 ml. The resuspended pellet was transferred into a 250 ml Corning centrifugal beaker and centrifuged at 1500×g for 10 minutes at 4° C. (Beckman Avanti J-HC; rotor JS-4.2). The supernatant (S1) was then transferred in the 21 Schott flask and the pellet was discarded. The supernatants (S1) were centrifuged in 500 ml Beckman polypropylene centrifugal beaker at 15′000×g for 30 minutes at 4° C. (Beckman Avanti J-20 XP; rotor JLA-10.500). The pellet (P2) was resuspended with Mannitol Buffer 1:1 and frozen at −80° C. The supernatant (S2) was centrifuged in 100 ml Beckman polypropylene centrifugal tubes at 48000×g for 50 minutes at 4° C. (Beckman Avanti J-20 XP; rotor JA-18). The supernatant (S3) was discarded and the pellet (P3) was resuspended with 1:1 Mannitol Buffer. The P2 and P3 protein concentration was determined with the BIORAD Standard assay method with bovine serum albumin as standard and measured on the NANO-Drop 1000. The membrane suspension was aliquots (500 μl per tube) and stored at −80° C. until required.
Membrane homogenates were resuspended and polytronised (Polytron PT1200E Kinematica AG) in Potassium Phosphate 10 mM, KCl 100 mM binding buffer at pH 7.4 to a final assay concentration determined with a previous experiment.
Radioligand binding assays were carried out in a volume of 200 μL (96-well plates) which contained 100 μL of cell membranes, [^3H]RO7239181 at a concentration of 1.5 nM (α5β2γ1) or 20-30 nM (α1β2γ1, α2β2γ1) and the test compound in the range of [0.3-10000]×10^−9 M. Nonspecific binding was defined by 10×10^−6 (α5β2γ1) and 30×10^−6 M RO7239181 and typically represented less than 5% (α5β2γ1) and less than 20% (α1β2γ1, α2β2γ1) of the total binding. Assays were incubated to equilibrium for 1 hour at 4° C. and then, membranes were filtered onto unifilter (96-well white microplate with bonded GF/C filters preincubated 20-50 minutes in 0.3% Polyethylenimine) with a Filtermate 196 harvester (Packard BioScience) and washed 4 times with cold Potassium Phosphate 10 mM pH 7.4, KCl 100 mM binding buffer. After anhydrousing, filter-retained radioactivity was detected by liquid scintillation counting. Ki values were calculated using Excel-Fit (Microsoft) and are the means of two determinations.
Representative test results, obtained by the above described assay measuring binding affinity to HEK293 cells expressing human (h) receptors, are shown in the Table 1.

Compound	Efficacy (GABA) % (h-GABA-A α2β2γ1 receptor) [%]	Fold increase h-GABA-A α2β2γ1 oocyte @ 30-fold Ki (h-GABA-A α2β2γ1 receptor)	Ki [1] [nM]
CN1C(=O)CN=C(c2cc(O)ccc2F)c2c1ccc(Cl)c2Cl [Example 1, 6,7-dichloro-5-(2-fluoro-5-hydroxy-phenyl)-1-methyl-3H-1,4-benzodiazepin-2-one]	90	1.90	0.34
Cc1nnc2n1-c1ccc(C(F)(F)F)c(Cl)c1C(c1cc(O)ccc1F)=NC2 [Example 9, 3-[7-chloro-1-methyl-8-(trifluoromethyl)-4H-[1,2,4]triazolo[4,3-a][1,4]benzodiazepin-6-yl]-4-fluoro-phenol]	69	1.69	0.86
Cc1nnc2n1-c1ccc(Cl)c(Cl)c1C(c1cc(O)ccc1F)=NC2 [Example 3, 3-(7,8-dichloro-1-methyl-4H-[1,2,4]triazolo[4,3-a][1,4]benzodiazepin-6-yl)-4-fluoro-phenol]	67	1.67	0.36
Cc1nnc2n1-c1ccc(Cl)c(Cl)c1C(c1cc(O)ccc1F)=N[C@H]2C [Example 4, 4-fluoro-3-[(4S)-7,8-dichloro-1,4-dimethyl-4H-[1,2,4]triazolo[4,3-a][1,4]benzodiazepin-6-yl]phenol]	33	1.33	0.38
COC1CN(C(=O)c2ncn3c2CN=C(c2cc(O)ccc2F)c2c-3ccc(C(F)(F)F)c2Cl)C1 [Example 15, [7-chloro-6-(2-fluoro-5-hydroxy-phenyl)-8-(trifluoromethyl)-4H-imidazo[1,5-a][1,4]benzodiazepin-3-yl]-(3-methoxyazetidin-1-yl)methanone]	80	1.80	0.85
C[C@@H]1N=C(c2nc(O)ccc2F)c2c(ccc(C(F)(F)F)c2Cl)-n2cc(C(=O)N3CCC3)nc21 [Example 30, azetidin-1-yl-[(4S)-7-chloro-6-(3-fluoro-6-hydroxy-2-pyridyl)-4-methyl-8-(trifluoromethyl)-4H-imidazo[1,2-a][1,4]benzodiazepin-2-yl]methanone]	120	2.20	8.77
O=c1ccn2c(n1)CN=C(c1c(F)ccc(O)c1F)c1c-2ccc(Cl)c1Cl [Example 14, 8,9-dichloro-7-(2,6-difluoro-3-hydroxy-phenyl)-5H-pyrimido[1,2-a][1,4]benzodiazepin-3-one]	68	1.68	0.85
Oc1ccc(F)c(C2=NCc3nncn3-c3ccc(C(F)(F)F)c(Cl)c32)c1 [Example 10, 3-[7-chloro-8-(trifluoromethyl)-4H-[1,2,4]triazolo[4,3-a][1,4]benzodiazepin-6-yl]-4-fluoro-phenol]	73	1.73	0.27
Cc1nnc2n1-c1ccc(C(F)(F)F)c(Cl)c1C(c1nc(O)ccc1F)=N[C@H]2C [Example 20, 6-[(4S)-7-chloro-1,4-dimethyl-8-(trifluoromethyl)-4H-[1,2,4]triazolo[4,3-a][1,4]benzodiazepin-6-yl]-5-fluoro-pyridin-2-ol]	120	2.20	5.02
Cc1nc2n(n1)-c1ccc(C(F)(F)F)c(Cl)c1C(c1nc(O)ccc1F)=N[C@H]2C [Example 25, 6-[(4S)-7-chloro-2,4-dimethyl-8-(trifluoromethyl)-4H-[1,2,4]triazolo[1,5-a][1,4]benzodiazepin-6-yl]-5-fluoro-pyridin-2-ol]	45	1.45	2.32
O=c1ccn2c(n1)CN=C(c1cc(O)ccc1F)c1c-2ccc(Cl)c1Cl [Example 6, 8,9-dichloro-7-(2-fluoro-5-hydroxy-phenyl)-5H-pyrimido[1,2-a][1,4]benzodiazepin-3-one]	92	1.92	0.39
CN1C(=O)CN=C(c2cc(O)ccc2F)c2c1ccc(C(F)(F)F)c2Cl [Example 8, 6-chloro-5-(2-fluoro-5-hydroxy-phenyl)-1-methyl-7-(trifluoromethyl)-3H-1,4-benzodiazepin-2-one]	75	1.75	0.44
CN1C(=O)CN=C(c2c(F)ccc(O)c2F)c2c1ccc(Cl)c2Cl [Example 12, 6,7-dichloro-5-(2,6-difluoro-3-hydroxy-phenyl)-1-methyl-3H-1,4-benzodiazepin-2-one]	99	1.99	0.46
Cc1ccc2c(c1Cl)C(c1cc(O)ccc1F)=NCC(=O)N2C [Example 2, 6-chloro-5-(2-fluoro-5-hydroxy-phenyl)-1,7-dimethyl-3H-1,4-benzodiazepin-2-one]	70	1.70	0.53
Cc1nc2n(n1)-c1ccc(C(F)(F)F)c(Cl)c1C(c1nc(O)ccc1Cl)=N[C@H]2C [Example 29, 5-chloro-6-[(4S)-7-chloro-2,4-dimethyl-8-(trifluoromethyl)-4H-[1,2,4]triazolo[1,5-a][1,4]benzodiazepin-6-yl]pyridin-2-ol]	70	1.70	3.63
Cc1cnc2n1-c1ccc(C(F)(F)F)c(Cl)c1C(c1nc(O)ccc1Cl)=N[C@H]2C [Example 26, 5-chloro-6-[(4S)-7-chloro-1,4-dimethyl-8-(trifluoromethyl)-4H-imidazo[1,2-a][1,4]benzodiazepin-6-yl]pyridin-2-ol]	79	1.79	3.25
